Measured values as given in US10457677B2 (priority 2015, dated 2019).

The compounds below were run against purified human recombinant ATM (ataxia telangiectasia mutated), full length (Homo sapiens (Human), UniProt Q13315) (assay: ATM kinase assay - determination of ATM inhibition (IC50 ATM), TR-FRET). Conditions: 10 μM ATP, substrate p53.
Sequence of purified human recombinant ATM (ataxia telangiectasia mutated), full length (Q13315 whole entry, change not shown): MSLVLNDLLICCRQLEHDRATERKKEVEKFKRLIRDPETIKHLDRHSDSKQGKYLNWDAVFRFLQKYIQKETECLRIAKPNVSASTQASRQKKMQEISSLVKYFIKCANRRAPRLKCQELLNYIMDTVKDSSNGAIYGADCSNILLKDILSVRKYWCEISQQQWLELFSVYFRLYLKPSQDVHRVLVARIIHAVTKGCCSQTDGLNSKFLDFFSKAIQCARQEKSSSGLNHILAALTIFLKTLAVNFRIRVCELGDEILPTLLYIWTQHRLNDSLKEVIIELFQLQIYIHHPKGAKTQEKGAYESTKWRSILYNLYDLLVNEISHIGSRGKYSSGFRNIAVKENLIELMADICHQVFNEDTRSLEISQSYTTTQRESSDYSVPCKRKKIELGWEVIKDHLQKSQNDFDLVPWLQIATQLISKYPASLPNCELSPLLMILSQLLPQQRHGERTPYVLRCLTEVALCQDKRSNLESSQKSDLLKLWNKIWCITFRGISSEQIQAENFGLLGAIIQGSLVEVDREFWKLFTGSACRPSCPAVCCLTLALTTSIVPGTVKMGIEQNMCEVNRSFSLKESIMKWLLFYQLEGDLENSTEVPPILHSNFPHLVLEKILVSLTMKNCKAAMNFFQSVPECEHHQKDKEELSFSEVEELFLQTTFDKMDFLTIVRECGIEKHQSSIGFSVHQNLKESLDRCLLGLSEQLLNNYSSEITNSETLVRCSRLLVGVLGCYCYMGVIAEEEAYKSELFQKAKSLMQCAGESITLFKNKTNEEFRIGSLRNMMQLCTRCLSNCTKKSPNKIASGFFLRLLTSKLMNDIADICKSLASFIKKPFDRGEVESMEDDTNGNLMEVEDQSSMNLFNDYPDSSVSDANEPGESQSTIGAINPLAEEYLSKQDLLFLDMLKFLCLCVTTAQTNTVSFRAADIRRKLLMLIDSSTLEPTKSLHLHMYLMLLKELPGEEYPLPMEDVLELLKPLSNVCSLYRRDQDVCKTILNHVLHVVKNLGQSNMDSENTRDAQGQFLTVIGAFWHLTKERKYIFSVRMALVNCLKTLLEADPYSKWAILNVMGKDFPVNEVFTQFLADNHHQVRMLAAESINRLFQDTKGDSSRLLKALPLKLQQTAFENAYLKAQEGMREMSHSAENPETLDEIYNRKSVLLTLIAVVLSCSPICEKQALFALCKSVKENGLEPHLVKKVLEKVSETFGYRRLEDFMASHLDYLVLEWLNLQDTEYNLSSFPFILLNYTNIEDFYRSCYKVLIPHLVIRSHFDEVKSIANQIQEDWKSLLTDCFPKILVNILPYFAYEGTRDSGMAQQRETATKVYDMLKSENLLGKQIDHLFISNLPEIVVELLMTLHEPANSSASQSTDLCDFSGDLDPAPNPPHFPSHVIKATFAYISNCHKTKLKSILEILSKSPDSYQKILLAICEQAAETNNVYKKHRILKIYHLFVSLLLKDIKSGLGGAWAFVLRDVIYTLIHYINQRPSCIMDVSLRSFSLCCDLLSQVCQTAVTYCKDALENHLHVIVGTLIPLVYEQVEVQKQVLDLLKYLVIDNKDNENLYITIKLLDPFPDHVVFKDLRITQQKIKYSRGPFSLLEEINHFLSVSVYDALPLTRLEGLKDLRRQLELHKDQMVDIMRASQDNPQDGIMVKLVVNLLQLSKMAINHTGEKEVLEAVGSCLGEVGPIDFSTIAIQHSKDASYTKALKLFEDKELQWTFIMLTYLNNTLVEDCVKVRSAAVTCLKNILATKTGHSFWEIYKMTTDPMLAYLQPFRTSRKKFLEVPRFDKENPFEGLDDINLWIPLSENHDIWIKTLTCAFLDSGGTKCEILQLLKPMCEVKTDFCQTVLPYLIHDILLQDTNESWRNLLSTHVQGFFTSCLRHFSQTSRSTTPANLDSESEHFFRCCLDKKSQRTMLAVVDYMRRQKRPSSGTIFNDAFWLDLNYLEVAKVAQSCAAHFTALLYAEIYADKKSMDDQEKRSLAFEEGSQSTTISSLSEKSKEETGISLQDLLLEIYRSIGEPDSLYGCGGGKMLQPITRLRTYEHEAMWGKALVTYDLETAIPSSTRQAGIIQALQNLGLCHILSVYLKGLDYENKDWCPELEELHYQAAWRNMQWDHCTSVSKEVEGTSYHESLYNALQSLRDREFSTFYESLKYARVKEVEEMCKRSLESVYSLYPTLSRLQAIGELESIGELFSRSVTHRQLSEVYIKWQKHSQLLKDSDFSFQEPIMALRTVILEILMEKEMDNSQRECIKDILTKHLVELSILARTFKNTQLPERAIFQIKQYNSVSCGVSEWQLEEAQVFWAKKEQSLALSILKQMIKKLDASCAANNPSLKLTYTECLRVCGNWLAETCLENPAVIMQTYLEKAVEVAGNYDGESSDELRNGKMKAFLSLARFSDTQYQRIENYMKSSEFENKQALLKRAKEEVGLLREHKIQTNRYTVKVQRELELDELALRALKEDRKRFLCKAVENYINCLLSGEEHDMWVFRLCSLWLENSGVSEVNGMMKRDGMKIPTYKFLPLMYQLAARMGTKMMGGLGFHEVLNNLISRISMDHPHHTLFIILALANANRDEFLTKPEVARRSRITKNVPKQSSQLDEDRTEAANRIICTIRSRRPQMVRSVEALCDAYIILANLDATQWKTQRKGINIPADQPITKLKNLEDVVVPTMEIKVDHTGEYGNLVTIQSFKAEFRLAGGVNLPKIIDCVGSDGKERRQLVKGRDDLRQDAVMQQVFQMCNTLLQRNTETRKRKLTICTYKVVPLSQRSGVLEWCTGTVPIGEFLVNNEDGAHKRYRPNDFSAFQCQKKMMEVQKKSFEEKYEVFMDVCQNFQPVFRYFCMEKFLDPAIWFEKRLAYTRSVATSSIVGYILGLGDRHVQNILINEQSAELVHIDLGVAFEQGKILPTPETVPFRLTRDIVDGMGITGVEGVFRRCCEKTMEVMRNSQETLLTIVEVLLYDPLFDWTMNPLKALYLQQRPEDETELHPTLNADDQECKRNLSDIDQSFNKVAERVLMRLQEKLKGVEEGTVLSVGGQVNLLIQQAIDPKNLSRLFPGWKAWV
Assay type: biochemical
Method: ATM kinase assay—determination of ATM inhibition (IC50 ATM):
The IC50 value was determined with the aid of a biochemical ATM kinase assay. The assay consists of two steps: the enzymatic reaction and the detection step. Firstly, ATM (ataxia telangiectasia mutated) protein and the test substance are incubated at different concentrations with addition of substrate protein p53 and ATP. ATM mediates the phosphorylation of p53 at several positions, including at amino acid S15. The amount of phosphorylated p53 is determined with the aid of specific antibodies and the TR-FRET technique. The enzymatic ATM assay is carried out as TR-FRET (HTRF™, Cisbio Bioassays) based 384-well assay. In the first step, purified human recombinant ATM (human ATM, full length, GenBank ID NM_000051, expressed in a mammal cell line) is incubated in assay buffer for 15 minutes with the ATM inhibitor in various concentrations and without test substance as negative or neutral control. The assay buffer comprises 25 mM HEPES pH 8.0, 10 mM Mg(CH3COO)2, 1 mM MnCl2, 0,1% BSA and 0,01% Brij® 35, 5 mM dithiothreitol (DTT). […] In the second step, purified human recombinant cmyc-labelled p53 (human p53, full length, GenBank ID BC003596, expressed in Sf21 insect cells) and ATP are added, and the reaction mixture is incubated at 22° C. for 30-35 minutes. The pharmacologically relevant assay volume is 5 μl. […] The enzymatic reaction is stopped by addition of EDTA. […] After incubation, usually for 2 hours (between 1.5 and 15h), for signal development, the plates are analysed in a plate reader (EnVision, PerkinElmer) using TRF mode (and with laser excitation). […] The measurement data were processed by means of Genedata Screener software.
For COc1cc2ncc3c(c2cc1-c1cn(C)nc1C)n(-c1c(F)cncc1OC(F)F)c(=O)n3C [compound 147, 1-(3-Difluoromethoxy-5-fluoropyridin-4-yl)-8-(1,3-dimethyl-1H-pyrazol-4-yl)-7-methoxy-3-methyl-1,3-dihydroimidazo[4,5-c]-quinolin-2-one], the IC50 was under 1 nM. For COc1cc2ncc3c(c2cc1-c1n[nH]cc1C)n(-c1cn(C)nc1C)c(=O)n3C [compound 151, 1-(1,3-Dimethyl-1H-pyrazol-4-yl)-7-methoxy-3-methyl-8-(4-methyl-1H-pyrazol-3-yl)-1,3-dihydroimidazo[4,5-c] quinolin-2-one], the IC50 was under 50 nM. COc1cc2ncc3c(c2cc1-c1cnn(C)c1)n(-c1ccc(F)cn1)c(=O)n3C [Compound Example 50, 1-(5-Fluoropyridin-2-yl)-7-methoxy-3-methyl-8-(1-methyl-1H-pyrazol-4-yl)-1,3-dihydroimidazo[4,5-c]-quinolin-2-one] gave an IC50 of under 10 nM. In the case of COc1cc2ncc3c(c2cc1-c1cnc2nc(C)[nH]c2c1)n(-c1cn(C)nc1C)c(=O)n3C [compound 154, 1-(1,3-Dimethyl-1H-pyrazol-4-yl)-7-methoxy-3-methyl-8-(2-methyl-1H-imidazo[4,5-b]pyridin-6-yl)-1,3-dihydro-imidazo[4,5-c]quinolin-2-one], the IC50 is reported as under 1 nM. Compound COc1cnc(-n2c(=O)n(C)c3cnc4cc(OC)c(-c5ccc6nc[nH]c6c5)cc4c32)c(F)c1 [compound 153, 8-(3H-Benzimidazol-5-yl)-1-(3-fluoro-5-methoxypyridin-2-yl)-7-methoxy-3-methyl-1,3-dihydroimidazo[4,5-c]-quinolin-2-one] has an IC50 of under 10 nM. For COc1ccc(-c2cc3c(cc2OC)ncc2c3n(-c3c(F)cncc3OC)c(=O)n2C)cn1 [compound 137, 1-(3-Fluoro-5-methoxy-pyridin-4-yl)-7-methoxy-8-(6-methoxypyridin-3-yl)-3-methyl-1,3-dihydroimidazo-[4,5-c]quinolin-2-one], the IC50 was under 10 nM. In the case of COc1cc2ncc3c(c2cc1-c1cnn(C)c1)n(-c1ncc(OCC2CN(C)C2)cc1F)c(=O)n3C [compound 207, 1-[3-Fluoro-5-(1-methyl-azetidin-3-ylmethoxy)-pyridin-2-yl]-7-methoxy-3-methyl-8-(1-methyl-1H-pyrazol-4-yl)-1,3-dihydro-imidazo[4,5-c]quinolin-2-one], the IC50 is reported as under 10 nM. COc1cc2ncc3c(c2cc1-c1cnn(C)c1)n(-c1ccccn1)c(=O)n3C [Compound Example 56, 7-Methoxy-3-methyl-8-(1-methyl-1H-pyrazol-4-yl)-1-pyridin-2-yl-1,3-dihydro-imidazo[4,5-c]quinolin-2-one] showed an IC50 of under 10 nM. In the case of COc1cc2ncc3c(c2cc1-c1cnn(C)n1)n(-c1c(F)cncc1OC)c(=O)n3C [compound 127, 1-(3-Fluoro-5-methoxy-pyridin-4-yl)-7-methoxy-3-methyl-8-(2-methyl-2H-1,2,3-triazol-4-yl)-1,3-dihydroimidazo[4,5-c] quinolin-2-one], the IC50 is reported as under 10 nM. Compound COc1cc2ncc3c(c2cc1-c1cnn(C)n1)n(-c1ncc(F)cc1F)c(=O)n3C [compound 101, 1-(3,5-Difluoropyridin-2-yl)-7-methoxy-3-methyl-8-(2-methyl-2H-1,2,3-triazol-4-yl)-1,3-dihydroimidazo-[4,5-c] quinolin-2-one] has an IC50 of under 50 nM. For CCn1cc(-n2c(=O)n(C)c3cnc4cc(OC)c(-c5cn(C)nc5C)cc4c32)c(C)n1 [compound 135, 8-(1,3-Dimethyl-1H-pyrazol-4-yl)-1-(1-ethyl-3-methyl-1H-pyrazol-4-yl)-7-methoxy-3-methyl-1,3-dihydro-imidazo[4,5-c]quinolin-2-one], the IC50 was under 1 nM. For CCn1cc(-c2cc3c(cc2OC)ncc2c3n(-c3ccncc3OC)c(=O)n2C)cn1 [compound 104, 8-(1-Ethyl-1H-pyrazol-4-yl)-7-methoxy-1-(3-methoxy-pyridin-4-yl)-3-methyl-1,3-dihydroimidazo[4,5-c] quinolin-2-one], the IC50 was under 10 nM. CCc1cnccc1-n1c(=O)n(C)c2cnc3cc(OC)c(-c4cnn(C)c4)cc3c21 [compound 156, 1-(3-Ethylpyridin-4-yl)-7-methoxy-3-methyl-8-(1-methyl-1H-pyrazol-4-yl)-1,3-dihydroimidazo[4,5-c] quinolin-2-one] showed an IC50 of under 1 nM. With COc1cc2ncc3c(c2cc1-c1cn(C)nn1)n(-c1ccncc1F)c(=O)n3C [compound 64, 1-(3-Fluoropyridin-4-yl)-7-methoxy-3-methyl-8-(1-methyl-1H-1,2,3-triazol-4-yl)-1,3-dihydroimidazo-[4,5-c] quinolin-2-one] the IC50 was under 10 nM. In the case of COc1cc2ncc3[nH]c(=O)n(-c4c(F)cncc4OC)c3c2cc1-c1cnn(C)c1 [compound 116, 1-(3-Fluoro-5-methoxy-pyridin-4-yl)-7-methoxy-8-(1-methyl-1H-pyrazol-4-yl)-1,3-dihydroimidazo[4,5-c]-quinolin-2-one], the IC50 is reported as under 10 nM. For CNCCOc1cnc(-n2c(=O)n(C)c3cnc4cc(OC)c(-c5cnn(C)c5)cc4c32)c(F)c1 [compound 206], the IC50 was under 10 nM. For COc1cc2ncc3c(c2cc1-c1cnn(C)n1)n(-c1ncccc1F)c(=O)n3C [compound 158, 1-(3-Fluoropyridin-2-yl)-7-methoxy-3-methyl-8-(2-methyl-2H-1,2,3-triazol-4-yl)-1,3-dihydroimidazo-[4,5-c] quinolin-2-one], the IC50 was under 500 nM. Compound COc1cc2ncc3c(c2cc1-c1cnc2nc(C)[nH]c2c1)n(-c1c(F)cncc1OC)c(=O)n3C [compound 152, 1-(3-Fluoro-5-methoxy-pyridin-4-yl)-7-methoxy-3-methyl-8-(2-methyl-1H-imidazo[4,5-b]pyridin-6-yl)-1,3-dihydroimidazo[4,5-c]-quinolin-2-one] has an IC50 of under 1 nM. COc1cc2ncc3c(c2cc1-c1cnn(C)c1)n(-c1ccc2ccccc2n1)c(=O)n3C [compound 68, 7-Methoxy-3-methyl-8-(1-methyl-1H-pyrazol-4-yl)-1-quinolin-2-yl-1,3-dihydro-imidazo[4,5-c]quinolin-2-one] was tested, and the IC50 was under 10 nM. Work on COc1cnc(-n2c(=O)n(C)c3cnc4cc(OC)c(-c5ccn[nH]5)cc4c32)c(F)c1 [compound 109, 1-(3-Fluoro-5-methoxy-pyridin-2-yl)-7-methoxy-3-methyl-8-(2H-pyrazol-3-yl)-1,3-dihydroimidazo[4,5-c] quinolin-2-one] yielded an IC50 of under 10 nM. In the case of COc1cc2ncc3c(c2cc1-c1cnn(C)c1)n(-c1ncc(Cl)cc1F)c(=O)n3C [compound 119, 1-(5-Chloro-3-fluoropyridin-2-yl)-7-methoxy-3-methyl-8-(1-methyl-1H-pyrazol-4-yl)-1,3-dihydroimidazo[4,5-c]-quinolin-2-one], the IC50 is reported as under 1 nM. Work on COc1cnc(-n2c(=O)n(C)c3cnc4cc(OC)c(-c5cn(C)nn5)cc4c32)c(F)c1 [compound 133, 1-(3-Fluoro-5-methoxy-pyridin-2-yl)-7-methoxy-3-methyl-8-(1-methyl-1H-1,2,3-triazol-4-yl)-1,3-dihydroimidazo[4,5-c] quinolin-2-one] yielded an IC50 of under 10 nM. Compound COc1cc2ncc3c(c2cc1-c1cnn[nH]1)n(-c1c(F)cncc1OC)c(=O)n3C [compound 134, 1-(3-Fluoro-5-methoxy-pyridin-4-yl)-7-methoxy-3-methyl-8-(3H-1,2,3-triazol-4-yl)-1,3-dihydroimidazo-[4,5-c] quinolin-2-one] has an IC50 of under 1 nM. Work on COc1cc2ncc3c(c2cc1-c1cnn(C)c1)n(-c1c(F)cncc1OC(F)F)c(=O)n3C [compound 146, 1-(3-Difluoromethoxy-5-fluoropyridin-4-yl)-7-methoxy-3-methyl-8-(1-methyl-1H-pyrazol-4-yl)-1,3-dihydroimidazo[4,5-c]-quinolin-2-one] yielded an IC50 of under 1 nM. For COc1cnc(-n2c(=O)n(C)c3cnc4cc(OC)c(-c5ccc6nc(C)[nH]c6c5)cc4c32)c(F)c1 [compound 144, 1-(3-Fluoro-5-methoxy-pyridin-2-yl)-7-methoxy-3-methyl-8-(2-methyl-3H-benzoimidazol-5-yl)-1,3-dihydroimidazo[4,5-c]-quinolin-2-one], the IC50 was under 1 nM.

Each compound was assayed on phosphorylation of CHK2 (phospho-Thr68) in HCT116 cells (assay: Cellular pCHK2 assay: bleomycin-induced phosphorylation of CHK2 (phospho-Thr68), immunofluorescence high-content analysis). Conditions: HCT116 cells, 10 μM bleomycin, 4 h; read-out: IC50 (pCHK2).
Assay type: cell-based, human
Text: For the identification of substances which inhibit the phosphorylation of the protein kinase CHK2 at the amino acid threonine 68, an immunofluorescence-based “high content” analysis assay was used in HCT116 cells.
In vitro cell-based immunofluorescence assay for the identification of inhibitors of bleomycin-induced phosphorylation of CHK2 (phospho-Thr68) in the human colon carcinoma cell line HCT116:
HCT116 cells are sown out in a defined cell density in 384-well plates in culture medium (DMEM high glucose, 2 mM GlutaMax, 1 mM Na pyruvate, 10% FCS) and incubated overnight at 37° C. and 10% of CO2. On the following day, the test substances are added in a defined concentration range (1 nM to 30 μM) in combination with 10 μM bleomycin, where the concentration of the solvent DMSO is kept constant at 0.5%. […] Parallel staining of DNA with propidium iodide enables determination of the cell count. The pCHK2 signal is detected using a high-content imager (Molecular Devices IMX Ultra) and automatic image analysis using the MetaXpress software belonging to the instrument. The number of cell nuclei which have a pCHK2 signal above a defined background is determined.
For CCn1cc(-c2cc3c(cc2OC)ncc2c3n(-c3c(F)cncc3OC)c(=O)n2C)cn1 [Example 13], the IC50 was under 200 nM.

Same assay, conditions: Homo sapiens, HCT-116, 4 h, read-out: IC50 (pCHK2)
COc1cc2ncc3c(c2cc1-c1cn(C)nc1C)n(-c1c(F)cncc1OC(F)F)c(=O)n3C [compound 147, 1-(3-Difluoromethoxy-5-fluoropyridin-4-yl)-8-(1,3-dimethyl-1H-pyrazol-4-yl)-7-methoxy-3-methyl-1,3-dihydroimidazo[4,5-c]-quinolin-2-one] showed an IC50 of under 200 nM.
